The text below walks through data of patent US7268113B2, “Long lasting growth hormone releasing factor derivatives” (ConjuChem Biotechnologies Inc., priority 2002, dated 2007).

Like-named read-outs stand apart in the source and are kept apart here. Where a SMILES comes first, the peptide text is derived from it. [ ]: non-standard residue; d: D form. The star is where a group is joined. Propanoyl(3-maleimido) = O=C1C=CC(=O)N1CCC(=O)*

Data set [1] can be described thus: Pharmacokinetic studies in male Sprague-Dawley rats (plasma RIA). The format is in vivo, rat. The protocol: Pharmacokinetic studies were carried out on the compounds of Examples 5 and 6. Each compound was injected subcutaneously (1 μmol/kg) or intravenously (100 nmol/kg) to male Sprague-Dawley rats. Serial blood samples were taken at pre-dose, 5, 30 and 60 minutes and 2, 4, 8, 24, 48, 72 and 96 hours post-agent administration. Plasma were harvested and frozen until analysis by radioimmunoassay (RIA). A commercial polyclonal antibody raised against human native GRF (1–29) was used to detect the compounds. The assay sensitivity was 300 to 10 000 pM. Consequently, some samples had to be diluted for analysis. The results of the pharmacokinetic profiles appear in FIG. 9. As it can be seen, the compound of Example 5, i.e., the native peptide, disappears very rapidly. In fact, the compound of Example 5, whether administered subcutaneously or intrasvenously, could not be detected after 60 minutes post administration. This is consistent with results in Sprague-Dawley rats reported in the literature for GRF (1–29) and other analogues thereof, regarding the terminal half-life thereof and the percentage of bioavailability (SC/IV) (see for example Peptides, 9:207–209, and J. Endocr., 107:R5–R8.

For data set [2] the following is noted: in vivo; cited from earlier work.

Regarding `CC[C@H](C)[C@H](NC(=O)[C@H](C)NC(=O)[C@H](CC(=O)O)NC(=O)[C@@H](C)NC(=O)[C@@H](N)Cc1ccc(O)cc1)C(=O)N[C@@H](Cc1ccccc1)C(=O)N[C@H](C(=O)N[C@@H](CCC(N)=O)C(=O)N[C@@H](CO)C(=O)N[C@@H](Cc1ccc(O)cc1)C(=O)N[C@@H](CCCNC(=N)N)C(=O)N[C@@H](CCCCN)C(=O)N[C@H](C(=O)N[C@@H](CC(C)C)C(=O)N[C@@H](C)C(=O)N[C@@H](CCC(N)=O)C(=O)N[C@@H](CC(C)C)C(=O)N[C@@H](CO)C(=O)N[C@@H](C)C(=O)N[C@@H](CCCNC(=N)N)C(=O)N[C@@H](CCCCN)C(=O)N[C@@H](CC(C)C)C(=O)N[C@@H](CC(C)C)C(=O)N[C@@H](CCC(N)=O)C(=O)N[C@@H](CC(=O)O)C(=O)N[C@H](C(=O)N[C@@H](CC(C)C)C(=O)N[C@@H](CO)C(=O)N[C@@H](CCCNC(=N)N)C(=O)N[C@@H](CCCCNC(=O)CCN1C(=O)C=CC1=O)C(N)=O)[C@@H](C)CC)C(C)C)[C@@H](C)O` [Example 6] (H-Y[dA]DAIFTQSYRKVLAQLSARKLLQDILSRK(Propanoyl(3-maleimido))-NH2), the λ in data set [1] (intravenous administration, 100 nmol/kg, male Sprague-Dawley rats) is listed as 0.037; in data set [1] (subcutaneous administration, 1 μmol/kg, male Sprague-Dawley rats), 0.027. Also, in data set [1] (rat, in vivo, sc, 1 umol/kg, subcutaneous administration, 1 μmol/kg, male Sprague-Dawley rats, read-out: Terminal half-life (converted)), the half-life was 25.8 ± 2.1 h. In data set [1] (subcutaneous (1 μmol/kg) or intravenous (100 nmol/kg), plasma RIA, FIG. 9), the “time post administration at which compound remains detectable in plasma” value is no less than 96 h.

In the case of “GRF 1–29: N-terminal 1–29 fragment of growth hormone releasing factor; commercial GRF(1–29) from Polypeptide Laboratories used as comparator”, the half-life in data set [2] is 0.167 to 0.217 h.
